This passage reports Ki results from ChEMBL document CHEMBL1132254, “Pharmacophore development for corticotropin-releasing hormone: new insights into inhibitor activity” (J Med Chem, 1999).

This assay concerns the target T1, Corticotropin-releasing factor receptor 1 (Homo sapiens, UniProt P34998).
T1 sequence (P34998 whole entry): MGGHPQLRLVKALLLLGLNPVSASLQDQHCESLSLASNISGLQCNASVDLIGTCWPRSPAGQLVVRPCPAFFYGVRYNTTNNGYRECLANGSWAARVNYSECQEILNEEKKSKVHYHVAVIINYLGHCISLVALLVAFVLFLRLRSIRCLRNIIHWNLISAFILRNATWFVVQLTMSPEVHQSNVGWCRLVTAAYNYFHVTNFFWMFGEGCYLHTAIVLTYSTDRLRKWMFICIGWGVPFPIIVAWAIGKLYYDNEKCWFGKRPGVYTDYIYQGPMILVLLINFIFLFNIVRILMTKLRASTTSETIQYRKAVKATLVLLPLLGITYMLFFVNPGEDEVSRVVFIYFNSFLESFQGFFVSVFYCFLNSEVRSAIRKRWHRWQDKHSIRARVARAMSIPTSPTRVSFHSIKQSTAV
Description: Inhibition of [125I]CRH binding to human Corticotropin releasing factor receptor 1.

In turn, `CCCN(CC1CC1)c1nc(C)nc(Nc2c(OC)cc(OC)cc2OC)n1` showed a Ki of 8 µM.
As to `CCCN(CC1CC1)c1cc(Nc2c(Cl)cc(Cl)cc2Cl)nc(C)n1`, affinity was put at a Ki of 0.253 µM.
